In patent US7514448B2, “Azaindoles useful as inhibitors of rock and other protein kinases” (Vertex Pharmaceuticals Incorporated, priority 2004, dated 2009):

Tests used:
ROCK I (AA 6-553) = ROCK I (AA 6-553) (Homo sapiens, UniProt Q13464); assay: ROCK inhibition assay, coupled enzyme system ("Enzyme"); assay type: biochemical; conditions: enzyme-linked assay; average Ki if more than one determined
Description: Reactions were carried out in a solution containing 100 mM HEPES (pH 7.5), 10 mM MgCl2, 25 mM NaCl, 2 mM DTT and 1.5% DMSO.
If more than one value of Ki has been determined, the average Ki is indicated. If no value is indicated, then the Ki was not determined.

PKA = PKA (Homo sapiens, UniProt P17612); assay: PKA inhibition assay, coupled enzyme; assay type: biochemical; conditions: average Ki if more than one determined
Description: Compounds were screened for their ability to inhibit PKA using a standard coupled enzyme assay (Fox et al., Protein Sci, 1998, 7, 2249). Assays were carried out in a mixture of 100 mM HEPES (pH 7.5), 10 mM MgCl2, 25 mM NaCl, 1 mM DTT and 3% DMSO. Final substrate concentrations in the assay were 50 μM ATP (Sigma Chemicals) and 80 μM peptide (Kemptide, American Peptide, Sunnyvale, Calif.). Assays were carried out at 30° C. and 18 nM PKA. Final concentrations of the components of the coupled enzyme system were 2.5 mM phosphoenolpyruvate, 300 μM NADH, 30 μg/ml pyruvate kinase and 10 μg/ml lactate dehydrogenase.
An assay stock buffer solution was prepared containing all of the reagents listed above, with the exception of ATP, and the test compound of the present invention. […] The plate was preincubated for 10 minutes at 30° C. and the reaction initiated by addition of 5 μl of ATP (final concentration 50 μM). Initial reaction rates were determined with a Molecular Devices SpectraMax Plus plate reader over a 15 minute time course. IC50 and Ki data were calculated from non-linear regression analysis using the Prism software package (GraphPad Prism version 3.0a for Macintosh, GraphPad Software, San Diego Calif., USA).

Sequence of ROCK I (AA 6-553) (Q13464 6-553, species assumed): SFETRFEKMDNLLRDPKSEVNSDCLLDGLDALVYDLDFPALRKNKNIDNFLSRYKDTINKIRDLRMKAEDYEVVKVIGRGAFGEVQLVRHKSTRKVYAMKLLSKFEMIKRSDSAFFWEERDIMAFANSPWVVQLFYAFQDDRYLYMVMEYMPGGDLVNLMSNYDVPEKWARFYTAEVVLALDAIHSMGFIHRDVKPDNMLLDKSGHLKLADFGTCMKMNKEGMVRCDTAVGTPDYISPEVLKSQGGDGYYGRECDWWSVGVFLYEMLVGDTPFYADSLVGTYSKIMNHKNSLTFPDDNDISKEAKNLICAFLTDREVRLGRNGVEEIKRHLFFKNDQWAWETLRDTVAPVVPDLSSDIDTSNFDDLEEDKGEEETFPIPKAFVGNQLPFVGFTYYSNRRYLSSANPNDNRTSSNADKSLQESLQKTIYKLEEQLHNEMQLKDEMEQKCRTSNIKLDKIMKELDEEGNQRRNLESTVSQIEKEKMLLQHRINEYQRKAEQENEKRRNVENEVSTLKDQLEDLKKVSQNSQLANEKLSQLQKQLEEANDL

| SMILES | Ki (ROCK I (AA 6-553)) | Ki (PKA) |
| --- | --- | --- |
| O=C(Cc1ccc(F)cc1)Nc1nnc(-c2c[nH]c3ncccc23)s1 [II-7] | < 0.5 µM | < 0.5 µM |
| O=C(Cc1ccccc1)Nc1nnc(-c2c[nH]c3ncccc23)s1 [II-8] | < 0.5 µM | < 0.5 µM |
| CS(=O)(=O)Nc1cccc(CC(=O)Nc2nnc(-c3c[nH]c4ncccc34)s2)c1 [II-9] | < 0.5 µM | < 0.5 µM |
| O=C(Cc1cc2c(cc1Cl)OCO2)Nc1nnc(-c2c[nH]c3ncccc23)s1 [II-10] | < 0.5 µM | 0.5 to 5 µM |
| O=C(Cc1ccccc1F)Nc1nc(-c2c[nH]c3nccc(F)c23)cs1 [II-11] | < 0.5 µM | < 0.5 µM |
| O=C(Cc1ccc(F)cc1)Nc1nc(-c2c[nH]c3nccc(F)c23)cs1 [II-12] | < 0.5 µM | < 0.5 µM |
| O=C(Cc1ccc(F)cc1F)Nc1nc(-c2c[nH]c3nccc(F)c23)cs1 [II-13] | < 0.5 µM | < 0.5 µM |
| CS(=O)(=O)Nc1cccc(CC(=O)Nc2nc(-c3c[nH]c4nccc(F)c34)cs2)c1 [II-14] | < 0.5 µM | 0.5 to 5 µM |
| O=C(CCc1ccccc1)Nc1nc(-c2c[nH]c3nccc(F)c23)cs1 [II-15] | < 0.5 µM | < 0.5 µM |
| O=C(Cc1ccccc1)Nc1nc(-c2c[nH]c3nccc(F)c23)cs1 [II-16] | < 0.5 µM | < 0.5 µM |
| O=C(Cc1cccc(OCCCC2CCNCC2)c1)Nc1nc(-c2c[nH]c3nccc(F)c23)cs1 [II-17] | < 0.5 µM | 0.5 to 5 µM |
| O=C(Cc1ccc2c(c1)OCO2)Nc1nc(-c2c[nH]c3nccc(F)c23)cs1 [II-18] | < 0.5 µM | < 0.5 µM |
| COc1cccc(CC(=O)Nc2nc(-c3c[nH]c4nccc(F)c34)cs2)c1 [II-19] | < 0.5 µM | < 0.5 µM |

Further lines, results first:

| Ki (ROCK I (AA 6-553)) | Ki (PKA) | SMILES |
| --- | --- | --- |
| < 0.5 µM | < 0.5 µM | O=C(Cc1cc2c(cc1Cl)OCO2)Nc1nc(-c2c[nH]c3nccc(F)c23)cs1 [II-20] |
| < 0.5 µM | < 0.5 µM | COc1cccc(CC(=O)Nc2cc(-c3c[nH]c4ncccc34)cs2)c1 [II-23] |
| < 0.5 µM | 0.5 to 5 µM | CCN(CC)S(=O)(=O)c1cccc(CC(=O)Nc2nc(-c3c[nH]c4ncccc34)cs2)c1 [II-24] |
| < 0.5 µM | < 0.5 µM | O=C(Cc1cccc(S(=O)(=O)N2CCNCC2)c1)Nc1nc(-c2c[nH]c3ncccc23)cs1 [II-25] |
| < 0.5 µM | 0.5 to 5 µM | O=C(Cc1cccc(S(=O)(=O)N2CCOCC2)c1)Nc1nc(-c2c[nH]c3ncccc23)cs1 [II-26] |
| < 0.5 µM | < 0.5 µM | CS(=O)(=O)Nc1cccc(CC(=O)N(c2nc(-c3c[nH]c4ncccc34)cs2)C2CC2)c1 [II-27] |
| < 0.5 µM | < 0.5 µM | O=C(NCc1ccc(F)cc1F)c1ccc(-c2c[nH]c3ncccc23)s1 [II-28] |
| < 0.5 µM | < 0.5 µM | O=C(NCc1ccccc1)c1ccc(-c2c[nH]c3ncccc23)s1 [II-29] |
| < 0.5 µM | < 0.5 µM | COc1cccc(CNC(=O)c2ccc(-c3c[nH]c4ncccc34)s2)c1 [II-30] |
| < 0.5 µM | < 0.5 µM | O=C(NCCc1ccccc1)c1ccc(-c2c[nH]c3ncccc23)s1 [II-31] |
| < 0.5 µM | < 0.5 µM | O=C(NCCc1cccc(F)c1)c1ccc(-c2c[nH]c3ncccc23)s1 [II-32] |
| < 0.5 µM | < 0.5 µM | CS(=O)(=O)Nc1cccc(CC(=O)Nc2cc(-c3c[nH]c4ncccc34)cs2)c1 [II-33] |
| < 0.5 µM | < 0.5 µM | Nc1ccc(CC(=O)Nc2nc(-c3c[nH]c4ncccc34)cs2)c(Cl)c1 [II-34] |
| < 0.5 µM | 0.5 to 5 µM | CCS(=O)(=O)Nc1ccc(CC(=O)Nc2nc(-c3c[nH]c4ncccc34)cs2)c(Cl)c1 [II-35] |
| < 0.5 µM | 0.5 to 5 µM | O=C(Cc1cccc(OCCCN2CCNCC2)c1)Nc1nc(-c2c[nH]c3nccc(F)c23)cs1 [II-36] |
| < 0.5 µM | 0.5 to 5 µM | CN1CCN(CCCOc2cccc(CC(=O)Nc3nc(-c4c[nH]c5nccc(F)c45)cs3)c2)CC1 [II-37] |
| < 0.5 µM | 0.5 to 5 µM | O=C(Cc1cccc(OCCCn2ccnc2)c1)Nc1nc(-c2c[nH]c3nccc(F)c23)cs1 [II-38] |
